Values of other authors, collected in patent US20200230059A1, “Solid Micronized Melatonin Composition” (Physician's Seal, LLC, priority 2019, published 2020).
Read-outs that look alike come from different tables or passages of the source.

solubility (gastric environment, pH approximately 1 to 3): relatively high
solubility (lower GI tract environment, pH approximately 5.5 to 7): decreases even further
solubility (upper GI tract environment, pH approximately 4.5 to 5.5): decreases
SMILES: COc1ccc2[nH]cc(CCNC(C)=O)c2c1 [Melatonin]
